Test results reported in patent publication US4537886A, “β-lactam antibacterial agents and compositions containing them” (Beecham Group p.l.c., priority 1982, dated 1985).
Converted amounts (≈) assume the structure as drawn. Counter-ions that a name gives are not always drawn.

These molecules were tested on E. coli NCTC 10418 (assay: MIC against E. coli NCTC 10418). Details: Escherichia coli, NCTC 10418 / NCTC 1048; E. coli NCTC 1048 as printed in Example 7; read-out: MIC against E. coli NCTC 1048.
Type: cell-based
`CCn1c(C)c(C(=O)N[C@@H](C(=O)N[C@@H]2C(=O)N3[C@@H]2SC(C)(C)[C@@H]3C(=O)O)c2ccccc2)c(=O)n1-c1ccc(N)cc1` [Example 7, 6β-[D2,-(2-Ethyl-3-methyl-1-(4-aminophenyl)-3-pyrazolin-5-one-4-carbonylamino)-2-phenyl]acetamido penicillanic acid (sodium salt)] gave an MIC of 50 µg/mL.

Same assay, conditions: Escherichia coli, NCTC10418; E. coli NCTC 10418; unit as printed in Example 1; read-out: MIC against E. coli NCTC 10418
Molecule `Cc1c(C(=O)N[C@@H](C(=O)N[C@@H]2C(=O)N3[C@@H]2SC(C)(C)[C@@H]3C(=O)O)c2ccccc2)c(=O)n(-c2ccccc2)n1C` [Example 1, 6β-[D,2-(2,3-dimethyl-1-phenyl-3-pyrazolin-5-one-4-carbonylamino)-2-phenyl]acetamido penicillanic acid, sodium salt] has an MIC of 5 µg/mL.

Same assay, conditions: Escherichia coli, NCTC10418; read-out: MIC against E. coli NCTC 10418
`CC(=O)OCC1=C(C(=O)O)N2C(=O)[C@@H](NC(=O)[C@H](NC(=O)c3cn(-c4ccc([N+](=O)[O-])cc4)[nH]c3=O)c3ccccc3)[C@H]2SC1` [Example 18, 7β-[D,2-(2-p-Nitrophenyl-3-pyrazolin-5-one-4-carbonyl-amino)-2-phenyl]acetamido-3-acetoxymethylceph-3-em-4-carboxylic acid, sodium salt] gave an MIC of 1 µg/mL.
With `CC1(C)S[C@@H]2[C@H](NC(=O)[C@H](NC(=O)c3cn(-c4ccc(N)cc4)[nH]c3=O)c3ccccc3)C(=O)N2[C@H]1C(=O)O` [Example 12, 6β-[D,2-(2-(4-Aminophenyl)-3-pyrazolin-5-one-4-carbonylamino)-2-phenyl] acetamido penicillanic acid (sodium salt)] the MIC was 5 µg/mL.
For `CCn1c(C)c(C(=O)N[C@@H](C(=O)N[C@@H]2C(=O)N3[C@@H]2SC(C)(C)[C@@H]3C(=O)O)c2ccccc2)c(=O)n1-c1ccc([N+](=O)[O-])cc1` [Example 6, 6β-[D,2-(2-Ethyl-3-methyl-1-(4-nitrophenyl)-3-pyrazolin-5-one-4-carbonylamino)-2-phenyl]acetamido penicillanic acid], the MIC was 25 µg/mL (≈ 40.2 µM).
Molecule `CC1(C)S[C@@H]2[C@H](NC(=O)[C@H](NC(=O)c3cn(-c4ccc([N+](=O)[O-])cc4)[nH]c3=O)c3ccc(O)cc3)C(=O)N2[C@H]1C(=O)O` [Example 13, 6β-[D,2-(2-(4-Nitrophenyl)-3-pyrazolin-5-one-4-carbonylamino)-2-(4-hydroxyphenyl)] acetamido penicillanic acid (sodium salt)] has an MIC of 5 µg/mL.
`CC1(C)S[C@@H]2[C@H](NC(=O)[C@H](NC(=O)c3cn(-c4ccc(O)cc4)[nH]c3=O)c3ccccc3)C(=O)N2[C@H]1C(=O)O` [Example 15, 6β-[D,2-(2-(4-Hydroxyphenyl)-3-pyrazolin-5-one-4-carbonylamino)-2-phenyl] acetamido penicillanic acid (sodium salt)] showed an MIC of 2 µg/mL.
`CC1(C)S[C@@H]2[C@H](NC(=O)[C@H](NC(=O)c3cn(-c4ccc(Br)cc4)[nH]c3=O)c3ccccc3)C(=O)N2[C@H]1C(=O)O` [Example 17, 6β-[D,2-(2-p-Bromophenyl-3-pyrazolin-5-one-4-carbonylamino)-2-phenyl]acetamido penicillanic acid, sodium salt] gave an MIC of 1 µg/mL.
Molecule `COc1ccc(-n2cc(C(=O)N[C@@H](C(=O)N[C@@H]3C(=O)N4[C@@H]3SC(C)(C)[C@@H]4C(=O)O)c3ccccc3)c(=O)[nH]2)cc1` [Example 20, 6β-[D,2-(2-[4-Methoxyphenyl]-pyrazol-3-in-5-one-4-carbonylamino)-2-phenyl]acetamido penicillanic acid, sodium salt] has an MIC of 0.25 µg/mL.
Molecule `COc1nn(-c2ccc([N+](=O)[O-])cc2)cc1C(=O)N[C@@H](C(=O)N[C@@H]1C(=O)N2[C@@H]1SC(C)(C)[C@@H]2C(=O)O)c1ccccc1` [Example 21, 6-β-[D,2-([1H]-3-Methoxy-1-[4-nitrophenyl]pyrazole-4-carbonylamino)-2-phenyl]acetamido penicillanic acid, sodium salt] has an MIC of 8 µg/mL.
`Cc1c(C(=O)N[C@@H](C(=O)N[C@@H]2C(=O)N3[C@@H]2SC(C)(C)[C@@H]3C(=O)O)c2ccccc2)c(=O)[nH]n1-c1ccccc1` [Example 16, 6β-[D,2-(3-Methyl-2-phenyl-3-pyrazolin-5-one-4-carbonyl-amino)-2-phenyl]acetamido penicillanic acid, sodium salt] showed an MIC of 25 µg/mL.
Work on `CC1(C)S[C@@H]2[C@H](NC(=O)[C@H](NC(=O)c3cn(-c4ccc(N)cc4)[nH]c3=O)c3ccc(O)cc3)C(=O)N2[C@H]1C(=O)O` [Example 14, 6β-[D,2-(2-(4-Aminophenyl)-3-pyrazolin-5-one-4-carbonylamino)-2-(4-hydroxyphenyl)] acetamido penicillanic acid (sodium salt)] yielded an MIC of 2.5 µg/mL.
With `Cc1ccc(-n2cc(C(=O)N[C@@H](C(=O)N[C@@H]3C(=O)N4[C@@H]3SC(C)(C)[C@@H]4C(=O)O)c3ccccc3)c(=O)[nH]2)cc1` [Example 23, 6β-[D,2-(2-[4-Methylphenyl]pyrazol-3-in-5-one-4-carbonylamino)-2-phenyl] acetamido penicillanic acid, sodium salt] the MIC was 10 µg/mL.
Molecule `CC1(C)S[C@@H]2[C@H](NC(=O)[C@H](NC(=O)c3cn(-c4ccccc4)[nH]c3=O)c3ccccc3)C(=O)N2[C@H]1C(=O)O` [Example 3, 6β-[D,2-(2-phenyl-3-pyrazolin-5-one-4-carbonylamino)-2-phenyl]acetamido penicillanic acid, sodium salt] has an MIC of 2.5 µg/mL.
`Cc1c(C(=O)N[C@@H](C(=O)N[C@@H]2C(=O)N3[C@@H]2SC(C)(C)[C@@H]3C(=O)O)c2ccc(O)cc2)c(=O)n(-c2ccccc2)n1C` [Example 2, 6β-[D,2-(2,3-dimethyl-1-phenyl-3-pyrazolin-5-one-4-carbonylamino)-2-(4-hydroxyphenyl)]acetamido penicillanic acid, sodium salt] showed an MIC of 12.5 µg/mL.
`Cc1c(C(=O)N[C@@H](C(=O)N[C@@H]2C(=O)N3[C@@H]2SC(C)(C)[C@@H]3C(=O)O)c2ccccc2)c(=O)n(-c2ccc(Br)cc2)n1C` [Example 10, 6β-[D,2-(2,3-Dimethyl-1-(4-bromophenyl)-3-pyrazolin-5-one-4-carbonylamino)-2-phenyl]acetamido penicillanic acid (sodium salt)] was tested, and the MIC was 5 µg/mL.
`Cn1cc(C(=O)N[C@@H](C(=O)N[C@@H]2C(=O)N3[C@@H]2SC(C)(C)[C@@H]3C(=O)O)c2ccccc2)c(=O)n1Cc1ccccc1` [Example 9, 6β-[D,2-(1-Benzyl-2-methyl-3-pyrazolin-5-one-4-carbonylamino)-2-phenyl]acetamido penicillanic acid (sodium salt)] gave an MIC of 5 µg/mL.
Molecule `COc1nn(-c2ccc(N)cc2)cc1C(=O)N[C@@H](C(=O)N[C@@H]1C(=O)N2[C@@H]1SC(C)(C)[C@@H]2C(=O)O)c1ccccc1` [Example 22, 6β-[D,2-([1H]-1-(4-Aminophenyl)-3-methoxypyrazole-4-carbonylamino)-2-phenyl]acetamido penicillanic acid, sodium salt] has an MIC of 16 µg/mL.
Work on `CC(=O)OCC1=C(C(=O)O)N2C(=O)[C@@H](NC(=O)[C@H](NC(=O)c3cn(-c4ccc(N)cc4)[nH]c3=O)c3ccccc3)[C@H]2SC1` [Example 19, 7β-[D,2-(2-p-Aminophenyl-3-pyrazolin-5-one-4-carbonylamino)-2-phenyl]acetamido-3-acetoxymethylceph-3-em-4-carboxylic acid, sodium salt] yielded an MIC of 5 µg/mL.
Molecule `CC1(C)S[C@@H]2[C@H](NC(=O)[C@H](NC(=O)c3cn(-c4ccc([N+](=O)[O-])cc4)[nH]c3=O)c3ccccc3)C(=O)N2[C@H]1C(=O)O` [Example 11, 6β-[D,2-(2-(4-Nitrophenyl)-3-pyrazolin-5-one-4-carbonylamino)-2-phenyl] acetamido penicillanic acid (sodium salt)] has an MIC of 2.5 µg/mL.
`CC1(C)S[C@@H]2[C@H](NC(=O)[C@H](NC(=O)c3cnn(-c4ccccc4)c3O)c3ccccc3)C(=O)N2[C@H]1C(=O)O` [Example 4, 6β-[D,2-(2H,3-Hydroxy-2-phenylpyrazole-4-carbonylamino)-2-phenyl]acetamido penicillanic acid (sodium salt)] showed an MIC of 2 µg/mL.
`COc1c(C(=O)N[C@@H](C(=O)N[C@@H]2C(=O)N3[C@@H]2SC(C)(C)[C@@H]3C(=O)O)c2ccccc2)cnn1-c1ccccc1` [Example 5, 6β-[D,2-(2H,3-Methoxy-2-phenyl-pyrazole-4-carbonylamino)-2-phenyl]acetamido penicillanic acid, sodium salt] gave an MIC of 12.5 µg/mL.
For `Cn1cc(C(=O)N[C@@H](C(=O)N[C@@H]2C(=O)N3[C@@H]2SC(C)(C)[C@@H]3C(=O)O)c2ccccc2)c(=O)n1-c1ccccc1` [Example 8, 6β-[D,2-(2-Methyl-1-phenyl-3-pyrazolin-5-one-4-carbonylamino)-2-phenyl]acetamido penicillanic acid (sodium salt)], the MIC was 10 µg/mL.
